Laboratory results: patent US20250152488A1, “SKIN BRIGHTENING COMPOSITION” (Conopco, Inc., d/b/a UNILEVER, priority 2022, published 2025)

What follows are molecules tested on Human primary melanocytes (assay: Melanin synthesis on melanocyte cells in vitro (melanin content assay)). Settings: 72 hrs treatment with actives in MGM media at the stated wt %; absorbance 405 nm.
Type: cell-based
Procedure: Experiments were carried out on melanocyte cells using the actives as shown in Table-3 using the procedure given below; • 1. Human primary melanocytes were seeded at a density of 5×10^4 per well into a 24 well plate with fresh melanocyte growth media (MGM). • 2. Post 24 hrs seeding, cells were treated with actives in fresh MGM media and incubated for 72 hrs at 5% CO2/37° C. incubator. • 3. After 72 h of incubation, melanin estimation was done. Melanin content estimation: Cell culture spent media was removed and cells were washed once with 200 μl of 1×PBS. […] Then 100 μl of this lysate was transferred to a fresh 384 well plate and absorbance was measured spectrophotometric at 405 nm with a micro plate reader.

Structure (SMILES) | Melanin synthesis (% of control)
CC(O)CN(CCN(CC(C)O)CC(C)O)CC(C)O (stereo not drawn) [D, tetrahydroxypropyl ethylenediamine] | 91 % of control
NC(=O)c1cccnc1 [E, niacinamide] | 97 % of control
CCCCCCC(O)CCCCCCCCCCC(=O)O (stereo not drawn) [F, 12-hydroxystearic acid] | 98 % of control
